Laboratory results: paper PMC6199744, “Development of Chemical Proteomics for the Folateome and Analysis of the Kinetoplastid Folateome” (ACS Infectious Diseases, 2018)
Like-named read-outs stand apart in the source and are kept apart here.

Columns and labels:
Type in all cases: binding
[1] = molecular target: T1, HeLa cell extract proteins (Homo sapiens, UniProt P33991)
T1 construct: endogenous in cells; host or cells: HeLa cell extract
T1 sequence (P33991 1-863): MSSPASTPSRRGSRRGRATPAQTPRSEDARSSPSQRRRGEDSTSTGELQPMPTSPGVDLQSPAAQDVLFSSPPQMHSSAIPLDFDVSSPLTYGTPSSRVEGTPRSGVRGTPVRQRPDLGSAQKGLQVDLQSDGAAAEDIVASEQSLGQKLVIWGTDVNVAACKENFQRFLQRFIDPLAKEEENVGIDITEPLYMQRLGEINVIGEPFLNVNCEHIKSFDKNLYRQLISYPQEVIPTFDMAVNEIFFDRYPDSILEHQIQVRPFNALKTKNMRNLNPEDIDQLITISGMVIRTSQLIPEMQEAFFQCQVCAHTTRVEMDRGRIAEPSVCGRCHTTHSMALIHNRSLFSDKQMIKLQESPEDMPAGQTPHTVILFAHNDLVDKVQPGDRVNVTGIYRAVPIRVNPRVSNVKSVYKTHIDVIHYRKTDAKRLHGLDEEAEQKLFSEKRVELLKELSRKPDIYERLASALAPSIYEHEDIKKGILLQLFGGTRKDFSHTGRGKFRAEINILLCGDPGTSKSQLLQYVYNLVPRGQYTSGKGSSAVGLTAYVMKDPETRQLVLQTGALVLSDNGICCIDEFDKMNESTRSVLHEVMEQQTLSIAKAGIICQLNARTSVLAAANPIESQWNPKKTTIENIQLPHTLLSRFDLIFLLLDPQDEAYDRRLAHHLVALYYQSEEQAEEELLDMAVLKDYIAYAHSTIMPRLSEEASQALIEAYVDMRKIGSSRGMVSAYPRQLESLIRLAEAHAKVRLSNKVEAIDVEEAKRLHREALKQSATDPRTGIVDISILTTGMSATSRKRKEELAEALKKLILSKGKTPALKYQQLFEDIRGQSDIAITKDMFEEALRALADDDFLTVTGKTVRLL

[2] = molecular target: T2, HeLa cell extract proteins (Homo sapiens, UniProt Q7RTS9)
T2 construct: endogenous in cells; host or cells: HeLa cell extract
T2 sequence (Q7RTS9 1-669): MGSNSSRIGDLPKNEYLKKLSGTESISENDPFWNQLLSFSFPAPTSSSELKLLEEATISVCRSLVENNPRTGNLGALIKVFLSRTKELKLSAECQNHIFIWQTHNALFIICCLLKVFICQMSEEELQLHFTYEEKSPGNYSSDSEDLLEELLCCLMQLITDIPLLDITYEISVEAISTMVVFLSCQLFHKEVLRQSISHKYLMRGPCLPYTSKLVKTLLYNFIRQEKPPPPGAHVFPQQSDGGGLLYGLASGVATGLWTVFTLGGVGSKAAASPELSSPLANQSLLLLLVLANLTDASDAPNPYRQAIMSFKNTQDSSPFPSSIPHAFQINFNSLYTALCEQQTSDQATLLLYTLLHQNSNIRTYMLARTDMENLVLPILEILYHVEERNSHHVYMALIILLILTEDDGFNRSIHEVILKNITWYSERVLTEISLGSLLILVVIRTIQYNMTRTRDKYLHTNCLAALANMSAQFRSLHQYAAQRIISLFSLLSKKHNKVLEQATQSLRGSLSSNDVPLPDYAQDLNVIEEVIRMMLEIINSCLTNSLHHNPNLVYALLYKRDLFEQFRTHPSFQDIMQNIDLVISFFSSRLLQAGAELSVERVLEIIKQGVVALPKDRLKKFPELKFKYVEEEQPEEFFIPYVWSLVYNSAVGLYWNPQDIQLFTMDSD

[3] = molecular target: T3, HeLa cell extract proteins (Homo sapiens, UniProt P26447)
T3 construct: endogenous in cells; host or cells: HeLa cell extract

[4] = molecular target: T4, HeLa cell extract proteins (Homo sapiens, UniProt P61106)
T4 construct: endogenous in cells; host or cells: HeLa cell extract

[5] = molecular target: T5, HeLa cell extract proteins (Homo sapiens, UniProt Q01628)
T5 construct: endogenous in cells; host or cells: HeLa cell extract

[6] = molecular target: T6, HeLa cell extract proteins (Homo sapiens, UniProt Q9NYU2)
T6 construct: endogenous in cells; host or cells: HeLa cell extract

[7] = molecular target: T7, HeLa cell extract proteins (Homo sapiens, UniProt P31153)
T7 construct: endogenous in cells; host or cells: HeLa cell extract

[8] = molecular target: T8, HeLa cell extract proteins (Homo sapiens, UniProt Q03519)
T8 construct: endogenous in cells; host or cells: HeLa cell extract
T8 sequence (Q03519 1-686): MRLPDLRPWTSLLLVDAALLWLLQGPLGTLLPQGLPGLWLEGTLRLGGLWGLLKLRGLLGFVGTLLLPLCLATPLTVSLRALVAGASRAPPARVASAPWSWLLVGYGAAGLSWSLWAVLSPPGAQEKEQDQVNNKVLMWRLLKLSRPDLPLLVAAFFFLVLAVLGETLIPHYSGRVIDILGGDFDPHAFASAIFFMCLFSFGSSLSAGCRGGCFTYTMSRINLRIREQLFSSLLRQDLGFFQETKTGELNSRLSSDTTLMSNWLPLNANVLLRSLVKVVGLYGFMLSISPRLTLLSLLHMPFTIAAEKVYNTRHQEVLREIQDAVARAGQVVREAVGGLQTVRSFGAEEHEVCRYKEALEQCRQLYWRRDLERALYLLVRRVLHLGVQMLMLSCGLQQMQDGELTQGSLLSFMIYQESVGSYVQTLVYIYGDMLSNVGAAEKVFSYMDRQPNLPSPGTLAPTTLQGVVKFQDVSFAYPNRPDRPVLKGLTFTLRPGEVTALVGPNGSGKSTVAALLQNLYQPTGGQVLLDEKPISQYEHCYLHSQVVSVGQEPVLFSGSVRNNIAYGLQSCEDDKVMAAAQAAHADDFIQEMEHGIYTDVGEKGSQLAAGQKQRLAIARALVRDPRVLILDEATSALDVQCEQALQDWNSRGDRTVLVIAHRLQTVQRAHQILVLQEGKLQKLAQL

[9] = molecular target: T9, HeLa cell extract proteins (Homo sapiens, UniProt P49915)
T9 construct: endogenous in cells; host or cells: HeLa cell extract
T9 sequence (P49915 whole entry): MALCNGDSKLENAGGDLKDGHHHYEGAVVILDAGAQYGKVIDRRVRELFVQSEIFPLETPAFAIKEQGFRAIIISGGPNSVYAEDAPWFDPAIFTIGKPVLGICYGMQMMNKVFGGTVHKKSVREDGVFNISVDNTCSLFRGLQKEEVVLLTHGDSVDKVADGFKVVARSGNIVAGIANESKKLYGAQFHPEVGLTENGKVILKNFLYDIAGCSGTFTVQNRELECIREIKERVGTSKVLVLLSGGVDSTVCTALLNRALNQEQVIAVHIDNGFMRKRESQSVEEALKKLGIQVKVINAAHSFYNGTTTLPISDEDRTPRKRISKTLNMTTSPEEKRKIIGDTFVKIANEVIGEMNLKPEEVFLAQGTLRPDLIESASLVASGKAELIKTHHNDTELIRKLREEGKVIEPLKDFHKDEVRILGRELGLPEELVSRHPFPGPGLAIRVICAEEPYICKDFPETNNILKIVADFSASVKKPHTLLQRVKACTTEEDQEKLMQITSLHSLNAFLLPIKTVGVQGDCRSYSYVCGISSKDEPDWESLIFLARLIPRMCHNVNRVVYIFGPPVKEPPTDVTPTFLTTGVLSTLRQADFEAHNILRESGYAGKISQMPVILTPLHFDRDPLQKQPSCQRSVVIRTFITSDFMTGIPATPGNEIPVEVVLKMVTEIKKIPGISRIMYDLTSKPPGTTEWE

T5 sequence (Q01628 whole entry): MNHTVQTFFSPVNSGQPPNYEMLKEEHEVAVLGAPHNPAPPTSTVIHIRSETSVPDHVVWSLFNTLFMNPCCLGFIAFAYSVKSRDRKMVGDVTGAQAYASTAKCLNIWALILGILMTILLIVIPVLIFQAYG
T7 sequence (P31153 whole entry): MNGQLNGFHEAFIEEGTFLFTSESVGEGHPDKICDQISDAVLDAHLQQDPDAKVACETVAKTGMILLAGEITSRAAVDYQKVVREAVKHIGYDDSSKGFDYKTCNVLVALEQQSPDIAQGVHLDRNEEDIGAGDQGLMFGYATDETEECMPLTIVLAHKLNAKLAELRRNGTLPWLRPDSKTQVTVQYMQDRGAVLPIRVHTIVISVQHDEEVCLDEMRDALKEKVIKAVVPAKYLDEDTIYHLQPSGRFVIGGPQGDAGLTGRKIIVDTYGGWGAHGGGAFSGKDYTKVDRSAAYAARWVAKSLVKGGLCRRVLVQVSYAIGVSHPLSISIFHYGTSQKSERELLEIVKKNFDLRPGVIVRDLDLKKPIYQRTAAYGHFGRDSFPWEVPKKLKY
T4 sequence (P61106 whole entry): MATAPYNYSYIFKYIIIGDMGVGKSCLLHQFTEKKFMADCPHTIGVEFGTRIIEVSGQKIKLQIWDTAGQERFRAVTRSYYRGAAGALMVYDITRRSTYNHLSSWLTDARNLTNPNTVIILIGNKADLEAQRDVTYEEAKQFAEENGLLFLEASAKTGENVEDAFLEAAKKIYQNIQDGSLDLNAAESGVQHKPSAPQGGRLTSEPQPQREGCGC
T3 sequence (P26447 whole entry): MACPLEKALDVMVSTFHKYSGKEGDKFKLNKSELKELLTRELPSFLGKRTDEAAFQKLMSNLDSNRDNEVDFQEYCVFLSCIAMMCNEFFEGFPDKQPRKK
T6 sequence (Q9NYU2 43-1555): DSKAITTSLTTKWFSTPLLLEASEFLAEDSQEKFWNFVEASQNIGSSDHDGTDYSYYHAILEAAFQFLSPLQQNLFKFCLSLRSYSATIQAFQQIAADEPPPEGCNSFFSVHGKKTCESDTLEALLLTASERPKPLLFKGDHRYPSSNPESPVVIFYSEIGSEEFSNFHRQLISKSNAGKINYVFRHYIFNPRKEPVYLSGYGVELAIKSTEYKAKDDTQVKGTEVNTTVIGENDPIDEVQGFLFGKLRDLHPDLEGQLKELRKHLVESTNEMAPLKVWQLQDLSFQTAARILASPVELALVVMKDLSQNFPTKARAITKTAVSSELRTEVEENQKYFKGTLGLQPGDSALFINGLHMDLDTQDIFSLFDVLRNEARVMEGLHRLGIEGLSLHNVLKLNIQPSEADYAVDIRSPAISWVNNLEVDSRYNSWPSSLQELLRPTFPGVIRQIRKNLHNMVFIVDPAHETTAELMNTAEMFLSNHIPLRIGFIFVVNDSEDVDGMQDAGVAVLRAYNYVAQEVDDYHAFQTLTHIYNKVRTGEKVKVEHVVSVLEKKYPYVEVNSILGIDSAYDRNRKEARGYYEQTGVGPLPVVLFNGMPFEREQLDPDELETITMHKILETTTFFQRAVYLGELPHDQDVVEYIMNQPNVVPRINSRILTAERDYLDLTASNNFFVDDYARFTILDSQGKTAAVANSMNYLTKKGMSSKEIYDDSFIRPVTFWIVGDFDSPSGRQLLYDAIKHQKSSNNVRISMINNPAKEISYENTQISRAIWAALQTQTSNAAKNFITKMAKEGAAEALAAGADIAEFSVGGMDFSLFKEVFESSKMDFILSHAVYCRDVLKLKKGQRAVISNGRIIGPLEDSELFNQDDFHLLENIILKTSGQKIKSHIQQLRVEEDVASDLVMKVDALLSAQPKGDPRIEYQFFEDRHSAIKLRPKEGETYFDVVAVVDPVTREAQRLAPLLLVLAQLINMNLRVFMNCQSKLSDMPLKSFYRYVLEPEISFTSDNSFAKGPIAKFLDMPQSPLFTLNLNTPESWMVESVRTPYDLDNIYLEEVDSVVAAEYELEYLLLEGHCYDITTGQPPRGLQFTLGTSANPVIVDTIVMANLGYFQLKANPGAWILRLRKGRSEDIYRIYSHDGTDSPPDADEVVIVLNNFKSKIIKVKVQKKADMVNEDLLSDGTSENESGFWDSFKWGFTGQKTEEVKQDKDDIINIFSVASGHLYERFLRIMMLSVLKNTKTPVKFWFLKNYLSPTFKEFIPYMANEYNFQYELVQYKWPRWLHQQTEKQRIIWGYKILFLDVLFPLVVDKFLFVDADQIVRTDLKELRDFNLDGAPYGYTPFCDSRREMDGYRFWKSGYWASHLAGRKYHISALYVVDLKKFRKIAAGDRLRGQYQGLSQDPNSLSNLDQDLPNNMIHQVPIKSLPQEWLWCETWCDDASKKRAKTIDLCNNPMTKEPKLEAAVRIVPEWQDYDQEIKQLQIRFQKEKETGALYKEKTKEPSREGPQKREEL

Structure (SMILES) | fold changes relative to vehicle control ([1]; protein MCM4, HeLa) | fold changes relative to vehicle control ([2]; HeLa, protein DYM) | fold changes relative to vehicle control ([3]; protein S100A4, HeLa) | fold changes relative to vehicle control ([4]; captured protein RAB14, HeLa) | fold changes relative to vehicle control ([5]; captured protein IFITM3, HeLa) | fold changes relative to vehicle control ([6]; protein UGCGL1, HeLa) | fold changes relative to vehicle control ([7]; protein MAT2A, HeLa) | fold changes relative to vehicle control ([8]; captured protein TAP2, HeLa) | fold changes relative to vehicle control ([9]; protein GMPS, HeLa) | fold changes relative to vehicle control ([4]; HeLa, protein RAB14) | fold changes relative to vehicle control ([5]; HeLa, protein IFITM3) | fold changes relative to vehicle control ([6]; HeLa, protein UGCGL1) | fold changes relative to vehicle control ([7]; HeLa, protein MAT2A) | fold changes relative to vehicle control ([8]; HeLa, captured protein TAP2) | fold changes relative to vehicle control ([9]; HeLa, protein GMPS) | further results
Nc1nc2cccc(-c3ccccc3)c2n1Cc1ccc(Cl)c(Cl)c1 [compound 3] | 0.9 | 0.88 | 1.15 | 0.82 | 0.9 | 1.05 | 1.01 | 1.06 | 0.96 |  |  |  |  |  |  | 
Nc1nc2[nH]cc(CCc3ccc(C(=O)N[C@@H](CCC(=O)O)C(=O)O)cc3)c2c(=O)[nH]1 [PTX, pemetrexed] |  |  |  |  |  |  |  |  |  |  |  |  |  |  |  | fold changes relative to vehicle control [1]: 0.96; fold changes relative to vehicle control [2]: 0.68; fold changes relative to vehicle control [3]: 0.99; fold changes relative to vehicle control [4]: 0.95; fold changes relative to vehicle control [5]: 1.32; fold changes relative to vehicle control [6]: 1.02; fold changes relative to vehicle control [7]: 1.07; fold changes relative to vehicle control [8]: 0.89; fold changes relative to vehicle control [9]: 0.99
Nc1nc2c(c(=O)[nH]1)N(C=O)C(CNc1ccc(C(=O)N[C@@H](CCC(=O)O)C(=O)O)cc1)CN2 (stereo partly drawn) [LEU, leucovorin] | 0.87 | 0.78 | 0.95 |  |  |  |  |  |  | 0.95 | 1.21 | 1.09 | 0.99 | 1.11 | 0.93 | 
CCCCCCOc1cccc(Cc2cnc(N)nc2N)c1 [compound 2] | 1.59 | 1.27 | 1.43 | 1.22 | 0.65 | 1.22 | 1.55 | 0.98 | 1.94 |  |  |  |  |  |  | 
NCCOCCOCC(=O)Nc1nc2ncc(CNc3ccc(C(=O)NC(CCC(=O)O)C(=O)O)cc3)nc2c(=O)[nH]1 (stereo not drawn) [compound 6] | 1.08 | 0.86 | 1.18 |  |  |  |  |  |  | 0.97 | 1.14 | 1.01 | 1.16 | 1.18 | 1.24 | 
CCCCCCOc1ccc(Cc2cnc(N)nc2N)cc1 [compound 1] | 1.11 | 0.89 | 0.83 | 0.89 | 1.07 | 0.99 | 1.21 | 1.01 | 1.37 |  |  |  |  |  |  | 
NCCCNc1ccc(C(=O)NC(CCC(=O)O)C(=O)O)cc1 (stereo not drawn) [compound 7] | 0.93 | 0.94 | 1.03 |  |  |  |  |  |  | 0.86 | 1.3 | 1.05 | 1 | 1.09 | 1.11 | 
